{"source": "patent US20260327196A1", "about": "“AMINO ACID DERIVATIVES FOR DETECTING NEUROLOGICAL DISORDERS” (Amydis, Inc., priority 2023, published 2026)", "key": {"[1]": {"tested_on": "Hyperphosphorylated three repeat tau protein", "assay": "In vivo detection in TBI mouse model, fluorescent imaging of retinas", "conditions": "intravenous administration, removed retinas, fluorescence microscope; wild type mice of comparable age: no immunostaining", "experimental": "Model mice having a target protein, for example, an amyloid beta protein, or a phosphorylated tau protein, or an accumulated mass thereof, are administered compound 1, 2, or 3 intravenously. Retinas of the mice are removed and are mounted on slides. The retinas are washed with PBS 2 times for 5 minutes. A solution of 98% formic acid is added-5 minutes for antigen retrieval. The sampled are washed with distilled water-2 times for 5 minutes. The samples are equilibrated in 1×PBS for 15 minutes, then blocked with 10% goat/donkey serum in 1×PBST (depending on antibodies) for 1 hour. Samples are covered in foil, and washed with 1×PBS 3 times for 5 minutes each. Samples are stained with DAPI (300 nM or 100 ng/ml) in dark for 10 minutes, then tissues are washed 3×10 minutes with PBS. Antifade DAKO mounting medium is added, and coverslip and kept under foil until imaging.\nFluorescent imaging study of the samples is conducted on a Leica DMI 4000B microscope (Leica, Germany) equipped with a TCS SPE camera and Leica 10, 20 and 40× objectives. The following lasers are used to visualize fluorescent probes pertaining to DAPI (blue, nuclear stain), compound 1, 2, or 3 (green) and hyperphosphorylated tau (red): 408, 488 and 568 nm. Z-stacked images are taken at 40× at 0.5 μm increments to visualize the entire thickness of the tissue."}, "[2]": {"tested_on": "aggregates in ALS ex vivo retina cadaver tissue", "assay": "Ex vivo human cadaver imaging study, flat mounted ALS retinas stained with compound 1", "conditions": "60 μM compound 1, 30 minutes at room temperature, confocal microscope", "experimental": "An ex vivo human cadaver imaging study was carried out using compound 1. Flat mounted retinas extracted from ALS (amyotrophic lateral sclerosis) human cadavers were stained with compound 1 (60 μM) and images were collected.\nThe following staining protocol was adopted in this study:\n• (i) Fix tissue in room temperature 4% PFA for 20 minutes, wash, permeabilize, and block (5% goat serum in PBST for 1 hour) • (ii) Incubate with 60 μM compound 1 in 1×PBS for 30 minutes at room temperature • (iii) Wash with PBS (3 times for 5 minutes) • (iv) Mount tissue using antifade Prolong Glass mounting media. • (v) Image with confocal microscope • (vi) Add lambda scanning imaging protocol to determine the emission peak."}, "[3]": {"molecular_target": "Aβ (Homo sapiens, UniProt P05067)", "sequence (P05067 672-713 limits assumed)": "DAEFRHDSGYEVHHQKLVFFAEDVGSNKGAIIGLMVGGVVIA", "assay": "Fluorescence emission / binding of compound 1 to aggregated amyloidogenic protein (Table A)", "conditions": "4 μM compound 1, 5 μM aggregated protein, 1×PBS pH 7.4", "experimental": "(§1) An in vitro study was carried out to characterize the fluorescent properties of compound 1 and its binding to amyloidogenic protein aggregates (e.g., Aβ, aSyn, TTR, and TDP43).\n(§2) Compound 1 (4 μM) was prepared with or without 5 μM aggregated amyloidogenic protein in 1× phosphate-buffered saline (PBS). The emission spectra of compound 1 for each sample were collected according to the following protocol and the corresponding fold increases (compound 1+amyloid aggregate/compound 1) were calculated.\n(§3) The following protocol was adopted in this study: • 1. Turn on the fluorimeter and let warm up for-30 minutes • 2. Allow aggregated amyloid protein (100 μM) solution to warm to room temperature • 3. Allow the compound 1 to warm to room temperature • 4. Prepare 1×PBS, pH 7.4. • 5. Prepare blank solution of DMSO/PBS (2.42 μl DMSO in 147.6 μl PBS, pH 7.4) • 6. Prepare a 250 μM solution of compound 1 in DMSO. Keep samples in the dark at room temperature. • 7. Prepare a 4 μM compound 1 solution with and without 5 μM aggregated amyloid protein • 8. Measure the emission scan of compound 1+aggregated amyloid protein solution using 1) 450 nm and 2) 488 nm as the excitation wavelength. Record the emission sweep from 450 nm-750 nm. Determine Amax from these spectra • 9. Repeat step 8 for 4 μM compound 1 without amyloid protein • 10. Export the data and plot relative fluorescence intensity (RFI) versus wavelength for emission spectra"}, "[4]": {"molecular_target": "TTR (Homo sapiens, UniProt P02766)", "assay": "Fluorescence emission / binding of compound 1 to aggregated amyloidogenic protein (Table A)", "conditions": "4 μM compound 1, 5 μM aggregated protein, 1×PBS pH 7.4", "experimental": "as §1, §2, §3"}, "[5]": {"molecular_target": "aSyn (Homo sapiens, UniProt P37840)", "assay": "Fluorescence emission / binding of compound 1 to aggregated amyloidogenic protein (Table A)", "conditions": "4 μM compound 1, 5 μM aggregated protein, 1×PBS pH 7.4", "experimental": "as §1, §2, §3"}, "[6]": {"molecular_target": "TDP43 (Homo sapiens, UniProt Q13148)", "sequence (Q13148 whole entry)": "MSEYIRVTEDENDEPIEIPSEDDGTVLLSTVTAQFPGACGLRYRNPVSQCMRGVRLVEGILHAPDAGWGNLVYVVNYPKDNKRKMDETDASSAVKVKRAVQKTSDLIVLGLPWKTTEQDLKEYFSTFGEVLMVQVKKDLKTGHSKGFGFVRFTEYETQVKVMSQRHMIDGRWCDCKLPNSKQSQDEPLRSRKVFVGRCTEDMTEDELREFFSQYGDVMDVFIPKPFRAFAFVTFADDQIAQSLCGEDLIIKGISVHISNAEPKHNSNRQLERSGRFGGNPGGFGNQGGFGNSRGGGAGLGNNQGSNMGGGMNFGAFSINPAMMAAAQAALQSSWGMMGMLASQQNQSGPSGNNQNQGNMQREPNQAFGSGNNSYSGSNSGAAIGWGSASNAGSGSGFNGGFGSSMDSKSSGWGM", "assay": "Fluorescence emission / binding of compound 1 to aggregated amyloidogenic protein (Table A)", "conditions": "4 μM compound 1, 5 μM aggregated protein, 1×PBS pH 7.4", "experimental": "as §1, §2, §3"}, "[7]": {"tested_on": "amyloid-like deposits in the retina", "assay": "In vivo NHP imaging study, fundus autofluorescence (FAF)", "parameters": "species or system non-human primates (monkeys)", "conditions": "5.13 mg/kg IV bolus", "experimental": "An in vivo imaging study was carried out in non-human primates (NHP).\nCompound 1 was administered to ketamine xylazine-anesthetized monkeys as a single bolus intravenous dose according to Table B. In-vivo fundus autofluorescence (FAF) images were collected prior to injection and at 2-, 5-, 15-, and 30-minutes post injection.\nThe compound 1 solution for injection (7 mg/mL compound 1 in 13 mM sodium bicarbonate buffered at pH 4.2) was prepared according to the following steps: • 1. Add 3 g sodium bicarbonate to 100 mL water (0.03 g/ml) • 2. Weigh out 4 g of PEG-400 (d. 1.13 g/mL) into an amber, or light isolated, 20 mL storage container containing a stir bar • 3. Add 200 mg of compound 1-HCl to the PEG-400 • 4. Add 20 mL water and stir until clear (~10 min) • 5. Add dropwise 0.6 ml of 0.03 g/ml sodium bicarbonate solution and stir 10 min (PH ~3.8) • 6. Add dropwise another 0.2 ml of the sodium bicarbonate solution and stir 10 min to adjust pH to 4.2 to provide a clear red solution • 7. Filter through 1 inch 0.22 μm diameter syringe filter to give a red clear solution into a presterilized sealed 20 mL amber glass vial • 8. Test the pH to confirm ~4.2 • 9. Transfer the remaining formulation into a 5 mL presterilized amber glass vial and place into a −20° C. freezer for analytical testing. The vial can be stored for up to 1 hour prior to use. • 10. Inject with a sterile syringe attached to a 0.22-micron PVDF membrane filter and needle. Use within 1 hour."}, "[8]": {"tested_on": "amyloidogenic protein aggregates (e.g., Aβ, aSyn, TTR, and TDP43)", "assay": "In vitro characterization: binding to amyloidogenic protein aggregates", "conditions": "4 μM compound 1, 5 μM aggregated protein; excitation 450 and 488 nm", "experimental": "as §1, §2\nas §3, with “Repeat step 8 for 4 μM compound 1 without amyloid protein • 10.” left out"}, "[9]": {"conditions": "FAF images at 2, 5, 15 and 30 minutes post injection"}}, "note": "Where a name gives a salt, the structure may show the parent alone."}
{"smiles": "CC(C)(C)OC(=O)NCC(=O)OCCOCCOCCNC(=O)/C(C#N)=C/c1ccc2cc(N3CCCCC3)ccc2c1", "note": "[Compound 2, (E)-2-(2-(2-(2-cyano-3-(6-(piperidin-1-yl)naphthalen-2-yl)acrylamido)ethoxy)ethoxy)ethyl (tert-butoxycarbonyl)glycinate]", "values": [{"measurement": "detection of hyperphosphorylated three repeat tau in the retina (fluorescent signal)", "setting": "[1]", "value": "Hyperphosphorylated three repeat tau protein is detected in the retina, producing a detectable fluorescent signal"}]}
{"smiles": "N#C/C(=C\\c1ccc2cc(N3CCCCC3)ccc2c1)C(=O)NCCOCCOCCOC(=O)CN", "note": "[Compound 1, (E)-2-(2-(2-(2-cyano-3-(6-(piperidin-1-yl)naphthalen-2-yl)acrylamido)ethoxy)ethoxy)ethyl glycinate hydrochloride salt]", "values": [{"measurement": "labeling of aggregates in ALS retina", "setting": "[2]", "value": "labeled aggregates in ALS ex vivo retina cadaver tissue"}, {"measurement": "Fold (fold increase, compound 1+amyloid aggregate/compound 1)", "setting": "[3]; excitation 450 nm", "value": 25.3, "unit": "fold"}, {"measurement": "λmax", "setting": "[3]; excitation 450 nm", "value": 550, "unit": "nm"}, {"measurement": "Fold (fold increase, compound 1+amyloid aggregate/compound 1)", "setting": "[3]; excitation 488 nm", "value": 17.9, "unit": "fold"}, {"measurement": "λmax", "setting": "[3]; excitation 488 nm", "value": 555, "unit": "nm"}, {"measurement": "Fold (fold increase, compound 1+amyloid aggregate/compound 1)", "setting": "[4]; excitation 450 nm", "value": 11.5, "unit": "fold"}, {"measurement": "λmax", "setting": "[4]; excitation 450 nm", "value": 543, "unit": "nm"}, {"measurement": "Fold (fold increase, compound 1+amyloid aggregate/compound 1)", "setting": "[4]; excitation 488 nm", "value": 5.9, "unit": "fold"}, {"measurement": "λmax", "setting": "[4]; excitation 488 nm", "value": 549, "unit": "nm"}, {"measurement": "Fold (fold increase, compound 1+amyloid aggregate/compound 1)", "setting": "[5]; excitation 450 nm", "value": 174.1, "unit": "fold"}, {"measurement": "λmax", "setting": "[5]; excitation 450 nm", "value": 530, "unit": "nm"}, {"measurement": "Fold (fold increase, compound 1+amyloid aggregate/compound 1)", "setting": "[5]; excitation 488 nm", "value": 110.8, "unit": "fold"}, {"measurement": "λmax", "setting": "[5]; excitation 488 nm", "value": 538, "unit": "nm"}, {"measurement": "Fold (fold increase, compound 1+amyloid aggregate/compound 1)", "setting": "[6]; excitation 450 nm", "value": 6.1, "unit": "fold"}, {"measurement": "λmax", "setting": "[6]; excitation 450 nm", "value": 544, "unit": "nm"}, {"measurement": "Fold (fold increase, compound 1+amyloid aggregate/compound 1)", "setting": "[6]; excitation 488 nm", "value": 4.70, "unit": "fold"}, {"measurement": "λmax", "setting": "[6]; excitation 488 nm", "value": 529, "unit": "nm"}, {"measurement": "detection of hyperphosphorylated three repeat tau in the retina (fluorescent signal)", "setting": "[1]", "value": "Hyperphosphorylated three repeat tau protein is detected in the retina, producing a detectable fluorescent signal"}, {"measurement": "hyperfluorescence in vasculature and retinal tissue following injection", "setting": "[7]; [9]", "value": "hyperfluorescence was observed within minutes in the vasculature following injection and subsequently in the retinal tissue"}, {"measurement": "labeling of amyloid-like deposits in the retina", "setting": "[7]; [9]", "value": "labeled amyloid-like deposits in the retina"}, {"measurement": "clearance of signal from the vascular system", "setting": "[7]; FAF images up to 30 minutes post injection", "value": "signal cleared quickly from the vascular system"}, {"measurement": "binding to the aggregated amyloidogenic proteins in vitro", "setting": "[8]", "value": "successfully bound to the aggregated amyloidogenic proteins in vitro"}]}
{"smiles": "C[C@H](N)C(=O)OCCOCCOCCNC(=O)/C(C#N)=C/c1ccc2cc(N3CCCCC3)ccc2c1", "note": "[Compound 3, (E)-2-(2-(2-(2-cyano-3-(6-(piperidin-1-yl)naphthalen-2-yl)acrylamido)ethoxy)ethoxy)ethyl L-alaninate hydrochloride salt]", "values": [{"measurement": "detection of hyperphosphorylated three repeat tau in the retina (fluorescent signal)", "setting": "[1]", "value": "Hyperphosphorylated three repeat tau protein is detected in the retina, producing a detectable fluorescent signal"}]}
